pKd: −log10 of the molar value. Entries after “also recorded” stand apart in the source; their conditions may differ.
How the values were obtained:
[1] = test system: PrP Δ52–91; format: binding, mouse
[2] = test system: PrP-Fc; format: binding, mouse
[3] = biological target: APLP2 (Homo sapiens, UniProt Q06481); format: binding
[4] = test system: control Fc protein; format: binding, human
[5] = biological target: APP (Homo sapiens, UniProt P05067); format: binding
[6] = biological target: Doppel (Homo sapiens, UniProt Q9UKY0); format: binding
[7] = biological target: PrP Δ32–106 (Mus musculus, UniProt P04925, DEL32-106); format: binding
[8] = test system: PrP Δ70–105; format: binding, mouse
[9] = test system: PrP Δ95–105; format: binding, mouse
[10] = test system: receptor for advanced glycation endproducts (RAGE); format: binding
[11] = test system: NR-2B containing receptors; format: cell-based
[12] = biological target: PrP^C (Mus musculus, UniProt P04925); format: binding
[13] = test system: Schaffer collateral LTP, Prnp −/− hippocampal slices; parameters: species or system mouse
[14] = biological target: T1, Sprn (Mus musculus, UniProt Q8BWU1); format: binding
T1 sequence (Q8BWU1 whole entry, looked up): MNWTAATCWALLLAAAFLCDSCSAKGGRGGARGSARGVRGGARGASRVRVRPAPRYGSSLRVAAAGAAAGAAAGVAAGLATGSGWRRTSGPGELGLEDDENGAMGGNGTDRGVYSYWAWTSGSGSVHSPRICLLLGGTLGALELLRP

[15] = test system: hippocampal neurons; format: binding, rat
[16] = biological target: PrP Δ32–121 (Mus musculus, UniProt P04925, DEL32-121); format: binding
[17] = test system: hippocampal cultures from Prnp −/− mice; format: binding, mouse
[18] = test system: Schaffer collateral LTP, wild-type hippocampal slices; parameters: species or system mouse
[19] = test system: hippocampal long-term potentiation; details: cited from earlier work
[20] = test system: NR-2D containing receptors; format: cell-based
[21] = format: physicochemical; details: pH 7

Chain of APLP2 (Q06481 32-763): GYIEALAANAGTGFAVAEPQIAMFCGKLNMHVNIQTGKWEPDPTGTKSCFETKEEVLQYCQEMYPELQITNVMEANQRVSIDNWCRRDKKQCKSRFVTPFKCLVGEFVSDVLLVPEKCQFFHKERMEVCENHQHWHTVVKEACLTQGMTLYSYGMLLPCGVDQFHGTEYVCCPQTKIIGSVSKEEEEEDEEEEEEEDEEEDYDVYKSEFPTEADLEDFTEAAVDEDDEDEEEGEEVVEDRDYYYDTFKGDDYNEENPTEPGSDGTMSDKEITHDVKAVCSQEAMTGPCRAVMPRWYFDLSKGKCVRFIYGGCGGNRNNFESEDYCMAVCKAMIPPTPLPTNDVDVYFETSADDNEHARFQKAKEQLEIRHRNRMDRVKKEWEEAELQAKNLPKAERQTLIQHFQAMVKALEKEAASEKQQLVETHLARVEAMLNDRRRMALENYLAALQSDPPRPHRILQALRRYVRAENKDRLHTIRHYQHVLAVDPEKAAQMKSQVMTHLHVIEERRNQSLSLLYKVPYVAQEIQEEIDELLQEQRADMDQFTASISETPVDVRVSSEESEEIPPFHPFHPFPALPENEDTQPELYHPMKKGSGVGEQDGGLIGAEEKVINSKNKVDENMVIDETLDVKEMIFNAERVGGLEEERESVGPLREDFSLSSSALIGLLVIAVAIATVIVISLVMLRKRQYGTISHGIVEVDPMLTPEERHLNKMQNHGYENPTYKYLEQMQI

## Aβ42
[1]
  binding to PrP Δ52–91 (in words): exhibits significant Aβ42 binding
[2]
  retention by PrP-Fc (in words): retained Aβ42 peptide through a direct physical interaction
[3]
  binding to APLP2 (in words): neither of these proteins binds Aβ42
[4]
  retention by control Fc: retained neither freshly prepared nor oligomeric preparations of Aβ42
[5]
  binding to APP (in words): neither of these proteins binds Aβ42

## Aβ42-oligomer
[6]
  affinity for Doppel (in words): neither exhibited affinity for oligomeric Aβ42
[7]
  binding to PrP Δ32–106 (in words): no Aβ42-oligomer affinity
[8]
  binding to PrP Δ70–105 (in words): no further reduction
[9]
  reduction of binding, PrP Δ95–105: 80%
[10]
  binding to RAGE (in words): less Aβ42-oligomer binding signal than did PrP, APLP1 or TMEM30B
[11]
  effect on NR2B-containing NMDA receptor currents: insensitive to Aβ42-oligomers
[12]
  effect of copper on binding to PrP: does not alter Aβ42-oligomer binding
[12]; read-out: KD, PrP
  pKd: 7.04
[13]
  effect on LTP, Prnp −/− slices: no significant inhibition of LTP
[14]
  affinity for Sprn (in words): neither exhibited affinity for oligomeric Aβ42
[15]
  binding to hippocampal neurons: saturable; also recorded: binds to 21 DIV hippocampal neurons
  developmental dependence of neuronal binding: minimal binding to neurons immediately after dissociation from E18 hippocampus; also recorded: Not until 15–20 days have elapsed in vitro does Aβ42-oligomer binding to neurons become robust
  localization of binding on neurons: most concentrated at post-synaptic densities; also recorded: localization of PrP immunoreactivity and Aβ42-oligomer binding overlap extensively
[15]; read-out: apparent KD
  pKd: 7.00 to 7.30
[16]
  binding to PrP Δ32–121 (in words): abrogates binding
[17]
  reduction of punctate binding in Prnp −/− cultures: 50%
[18]
  effect on LTP, wild-type slices: reduce LTP in hippocampal slices from wild-type mice
[19]
  effect on Schaffer collateral LTP: suppress long-term potentiation (LTP)
[20]
  effect on NR2D-containing NMDA receptor currents: insensitive to Aβ42-oligomers

## biotin-Aβ42-oligomer: Aβ42 with biotin moiety attached by 6-carbon linker to amino terminus, oligomerized
[15]
  localization of binding on neurons: very low levels in astroglial cells
[21]
  particle diameter: 5–6 nm

## freshly prepared biotin-Aβ42: freshly prepared Aβ42 with biotin attached by 6-carbon linker to amino terminus
[15]
  binding to hippocampal neurons: does not

Reference: article PMC2748841 (Nature, 2009)
